In ChEMBL document CHEMBL1201862, “PubChem BioAssay data set” (2004):
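Cultured in 96-well plates, cells were exposed to test compound for 48 hours across five concentrations. GI50 marks 50% less growth.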 Calls of active or inactive are those of the source. No stated cut-off is given here; in the data, active = GI50 up to about 1.1 µM and inactive = higher.

What was measured:
Experiment in all cases: NCI anticancer screen, dose series, 48 h
[1] = tested on: HCC 2998
[2] = tested on: HL-60
[3] = tested on: HOP-92
[4] = tested on: HT-29
[5] = tested on: IGROV-1
[6] = tested on: K562
[7] = tested on: KM12
[8] = tested on: NCI-H23
[9] = tested on: NCI-H460
[10] = tested on: OVCAR-4
[11] = tested on: RPMI-8226
[12] = tested on: SF-268
[13] = tested on: SF-539
[14] = tested on: SK-MEL-2
[15] = tested on: SK-MEL-5
[16] = tested on: SNB-19
[17] = tested on: U-251
[18] = tested on: UACC-257
[19] = tested on: UO-31
[20] = tested on: ACHN

Measured: GI50

CN(C)C(=O)Oc1c(Br)cc(Br)cc1C(=O)OCc1ccccc1
inactive: [1] 36.1 µM | [2] 21.4 µM | [3] 16.8 µM | [4] 13.5 µM | [5] 28.6 µM | [6] 28.2 µM | [7] 28.7 µM | [8] 30.6 µM | [9] 21.8 µM | [10] 33 µM | [11] 19.5 µM | [12] 35.6 µM | [13] 26.6 µM | [14] 27.7 µM | [15] 13.1 µM | [16] 45.5 µM | [17] 21.6 µM | [18] 26.5 µM | [19] 20.3 µM

O=C1CCCC/C1=C1/SC(=N/c2ccccc2)/C(=N\c2ccccc2)N1c1ccccc1
inactive: [1] > 100 µM | [2] > 100 µM | [3] > 100 µM | [4] > 100 µM | [5] > 100 µM | [6] > 100 µM | [7] > 100 µM | [8] > 100 µM | [9] > 100 µM | [11] > 100 µM | [14] > 100 µM | [15] > 10 µM | [16] > 100 µM | [17] > 100 µM | [19] 91.4 µM

O=c1c(-c2ccccc2)c(SCCN2CCOCC2)n(-c2ccccc2)c(=S)n1-c1ccccc1
inactive: [20] > 100 µM | [1] > 100 µM | [2] > 100 µM | [3] 25.2 µM | [5] > 100 µM | [6] > 100 µM | [7] > 100 µM | [8] > 100 µM | [9] > 100 µM | [10] 32.1 µM | [11] > 100 µM | [13] > 100 µM | [14] > 100 µM | [15] > 100 µM | [17] > 100 µM | [18] > 100 µM

O=C(NNC(=S)Nc1ccccc1)c1nsc2ccccc12
inactive: [20] 39.7 µM | [1] 55 µM | [2] 20.1 µM | [3] 20.4 µM | [4] 50 µM | [5] 31 µM | [6] 35.7 µM | [7] 30.4 µM | [8] 36.6 µM | [9] 21.5 µM | [10] 96.8 µM | [11] 16 µM | [12] 30.1 µM | [13] 31.3 µM | [14] 19.6 µM | [15] 24.6 µM | [16] 34.9 µM | [17] 27.1 µM | [18] 33.3 µM | [19] 25.5 µM

C1CSCCSCCSCCSC1
inactive: [20] > 100 µM | [1] > 100 µM | [3] > 100 µM | [4] > 100 µM | [5] > 100 µM | [7] > 100 µM | [8] > 100 µM | [9] > 100 µM | [10] > 100 µM | [11] > 100 µM | [12] > 100 µM | [13] > 100 µM | [14] > 100 µM | [15] > 100 µM | [16] > 100 µM | [17] > 100 µM | [18] > 100 µM | [19] > 100 µM

COc1ccc(/N=C\c2ccc(N(CCC#N)S(=O)(=O)c3ccccc3)cc2C)cc1
inactive: [20] 15.6 µM | [1] 32 µM | [2] 16.9 µM | [3] > 100 µM | [4] 53.7 µM | [5] 64.1 µM | [6] 11.1 µM | [8] 43 µM | [9] 34.8 µM | [10] 74.6 µM | [11] > 100 µM | [12] 3.58 µM | [13] 44.2 µM | [14] 23.3 µM | [15] 51.1 µM | [16] > 100 µM | [17] > 100 µM | [18] 39.5 µM | [19] 23.3 µM

O=C(Nc1ccc([N+](=O)[O-])cc1)C(=O)C(C(=O)c1ccccc1F)C1OC(=O)c2ccccc21 (configuration not stated)
inactive: [20] 58.5 µM | [1] 21 µM | [2] 22.2 µM | [3] > 100 µM | [4] 51.9 µM | [5] 64.9 µM | [6] 25.3 µM | [7] 42.4 µM | [8] 81.1 µM | [9] 34.9 µM | [10] 42.8 µM | [11] 18.2 µM | [12] 35 µM | [13] 21.5 µM | [14] 23.7 µM | [15] 48.5 µM | [16] 26.4 µM | [17] 17.7 µM | [18] 86.5 µM | [19] 38.1 µM

CCNC(=S)NNC(=O)c1nsc2ccccc12
inactive: [20] > 100 µM | [1] > 100 µM | [2] 59.4 µM | [3] 85.7 µM | [4] 72.1 µM | [5] > 100 µM | [6] 64.9 µM | [7] 67.1 µM | [8] > 100 µM | [9] 50.1 µM | [10] > 100 µM | [11] 51.8 µM | [12] 81.5 µM | [13] > 100 µM | [14] 2.88 µM | [15] 64.6 µM | [16] > 100 µM | [17] 94.2 µM | [18] > 100 µM | [19] 52.8 µM
